According to article PMC7462607 (eLife, 2020):
Where “and” joins values, the source holds several entries; their conditions need not be identical. Identical values can stand only once. Like-named read-outs stand apart in the source and are kept apart here.

Tests used:
[1] = test system: ARE-luc2P activity (NRF2); assay: ARE-luc2P reporter assay (NRF2 activity); format: cell-based; conditions: Homo sapiens; A549 ARE-luc2P reporter cells
Description: A549 cells were transiently transfected with the plasmid pGL4.37 (Promega, Madison, USA) and selected with 500 µg/ml of hygromycin to obtain a stable cell line harboring the ARE-luc2P reporter. TK-luc2P was cloned into the pLVX-IRE-Puro backbone by replacing its CMV promoter and multiple cloning site with HSV-TK promoter fused to luc2P. The resulting pLVX-TK-luc2P-IRES-Puro plasmid was packaged into lentivirus to transduce A549 cells. Stable cell lines were obtained by selection of transduced cells with 2 µg/ml of puromycin.
A screening library with 65,790 small molecules (Life Chemicals, Niagara-on-the-Lake, Canada) were used in primary screening. The screening procedures were as follows. Seven hundred A549 ARE-luc2P cells in 50 µL of medium were plated per well in 384-well flat clear bottom white polystyrene TC-treated microplates (Corning, Corning, USA) and allowed to attach to plates overnight. […] Twelve hours later, ARE-luc2P activities were measured with Bright-Glo luciferase assay system (Promega, Madison, USA) following vendor instructions. Luminescence was measured on a EnVision multimode plate reader (PerkinElmer, Waltham, USA). Luminescence data on each plate was Z-score normalized using the equation Z=x−μ/σ , where x is the luminescence value of a well, µ is the mean and σ is the standard deviation of all values on one plate. […]

[2] = test system: A549 cells stably expressing 3xFLAG-CDK12 WT/G731E/G731R; assay: Cell viability assay, A549 cells stably expressing wild-type or G731E/R mutant CDK12; format: cell-based; conditions: Homo sapiens
Description: (§1) Seven hundred A549 cells or 1,000 HCT-116 cells in 50 µL of medium were plated per well in 384-well flat clear bottom white polystyrene TC-treated microplates (Corning, Corning, USA). After overnight attachment, cells were dosed with a serial dilution of HQ461 with a D300e digital dispenser (Tecan, Männedorf, Switzerland). Cell survival was measured 72 hr later using CellTiter-Glo luminescent cell viability assay kit (Promega, Madison, USA) following vendor instructions. Luminescence was recorded by EnVison multimode plate reader (PerkinElmer, Waltham, USA). IC50 was determined with GraphPad Prism using baseline correction (by normalizing to DMSO control), the asymmetric (five parameter) equation, and least squares fit.
An ORF encoding CDK12 isoform 2 (NM_015083.3) was PCR amplified from A549 cDNA and cloned into a pCDNA3.1-N-3xFLAG vector which was derived from the pCDNA3.1 vector. G731E and G731R mutations in CDK12 were introduced by overlap extension PCR. After sequencing verification, wild-type and mutant 3xFLAG-CDK12 sequences were subcloned into lentiCas9-Blast (Addgene 52962) by replacing the Cas9 ORF with 3xFLAG-CDK12. The resulting lenti-EF1α−3xFLAG-CDK12-P2A-BSD WT/GE/GR constructs were packaged into lentiviral vectors to transduce A549 cells. Stable cell lines were obtained by selection with 20 µg/ml of blasticidin.

[3] = test system: POLII CTD Serine 2 phosphorylation; assay: Western blotting of POLII CTD Serine 2 phosphorylation; format: cell-based, Homo sapiens
Description: Standard SDS-PAGE and western blotting procedures were used with the following modifications. For preparation of total lysates, cells were rinsed with DPBS to remove residual medium and then lysed in 20 mM HEPES-NaOH, pH 8.0, 10 mM NaCl, 2 mM MgCl2, 1% SDS freshly supplemented with 0.5 units/µL of benzonase and 1x cOmplete, Mini, EDTA-free protease inhibitor cocktail (Roche, Bazel, Switzerland). Protein concentrations of the resulting lysates were quantified by the BCA method. Between 30 to 60 µg of proteins were resolved on SDS-PAGE and transferred to nitrocellulose membranes with a pore size of 0.5 μm. Membranes were blocked in 5% nonfat milk PBST (0.1% v/v Tween-20) for 30 min before blotting with antibodies. […]

A549 cells = assay: Cell viability assay (CellTiter-Glo), A549; format: cell-based, Homo sapiens; conditions: for CellTiter-Glo (ATP): A549, raw signal, Rep 1-3
Description: as §1

Cc1cccc(Nc2nc(CC(=O)Nc3ncc(C)s3)cs2)n1 [HQ461, 2-(2-((6-methylpyridin-2-yl)amino)thiazol-4-yl)-N-(5-methylthiazol-2-yl)acetamide]
IC50 [1]: 3.6 µM
IC50 ([2]; CDK12 G731E, read-out: IC50 on the viability of A549 cells stably expressing G731E mutant CDK12): 16.9 µM
IC50 ([2]; CDK12 G731R, read-out: IC50 on the viability of A549 cells stably expressing G731R mutant CDK12): 22.9 µM
IC50 ([2]; read-out: IC50 on the viability of A549 cells stably expressing wild-type CDK12): 1.3 µM
inhibitory effect on POLII CTD Serine 2 phosphorylation ([3]; A549 with CDK12 G731E or G731R mutation): abolished
POLII CTD Serine 2 phosphorylation ([3]; parental A549): reduced POLII CTD Serine 2 phosphorylation
CellTiter-Glo (ATP) (A549 cells; HQ461 1.6e-6 M): 1.74E+06 and 1.39E+06 and 1.50E+06
CellTiter-Glo (ATP) (A549 cells; HQ461 3.12e-6 M): 360450 and 439670 and 341920
CellTiter-Glo (ATP) (A549 cells; HQ461 6.31e-6 M): 173530 and 234990 and 251210
CellTiter-Glo (ATP) (A549 cells; HQ461 1.25e-5 M): 146290 and 177880 and 172140
CellTiter-Glo (ATP) (A549 cells; HQ461 2.51e-5 M): 65570 and 94080 and 92090
CellTiter-Glo (ATP) (A549 cells; HQ461 2.00E-07 M): 4.81E+06 and 4.79E+06 and 4.78E+06
CellTiter-Glo (ATP) (A549 cells; HQ461 3.96E-07 M): 3.92E+06 and 3.86E+06 and 3.80E+06
CellTiter-Glo (ATP) (A549 cells; HQ461 4.80E-08 M): 4.68E+06 and 4.34E+06 and 4.06E+06
CellTiter-Glo (ATP) (A549 cells; HQ461 7.99E-07 M): 3.98E+06 and 3.60E+06 and 3.16E+06
CellTiter-Glo (ATP) (A549 cells; HQ461 9.99E-08 M): 3.91E+06 and 3.89E+06 and 3.96E+06
IC50 (A549 cells; Homo sapiens, A549, 72 hr, CellTiter-Glo): 1.3 µM
